Experimental findings from patent US6420563B1, “Small molecule modulators of G protein-coupled receptor six” (Arena Pharmaceuticals, Inc., priority 1998, dated 2002) are described below.

A word on the IC50: it is the concentration that gives 50% inhibition.

Where two headings read alike, the source gives them in different places.

One test addresses T1, GPR6 (Homo sapiens, UniProt P46095).
T1 construct: expressed in transfected cells; 293 cells are used elsewhere
The test is described as follows: membrane-based cyclic AMP confirmation assay (Example 4C). In kind it is biochemical. The conditions noted are these: mean +/- standard deviation (number of assays in brackets); read-out: IC50 Values Cyclic AMP Assay Example 4C. The text has this:
Using an independent assay approach to provide confirmation of a directly identified candidate compound as set forth above, it is preferred that a confirmation assay then be utilized. In this case, the preferred confirmation assay is membrane-based cyclic AMP (cAMP) assay.
A modified Flash Plate™ Adenylyl Cyclase kit (New England Nuclear; Cat. No. SMP004A) was utilized for confirmation of candidate compounds directly identified as inverse agonists and agonists to endogenous, constitutively activated orphan GPCRs in accordance with the following protocol.
Transfected stable cells were harvested approximately three days after transfection. Membranes were prepared by homogenization of suspended cells in buffer containing 20 mM HEPES, pH 7.4 and 10 mM MgCl2. Homogenization was performed on ice using a Brinkman Polytron™ for approximately 10 seconds. The resulting homogenate was centrifuged at 20,000 rpm for 20 minutes at 4° C. The resulting pellet was then resuspended in buffer containing 20 mM HEPES, pH 7.4 and 0.1 mM EDTA, homogenized for 10 seconds, followed by centrifugation at 20,000 rpm for 20 minutes at 4° C. The resulting pellet can be stored at −80° C. until utilized. On the day of direct identification screening, the membrane pellet is slowly thawed at room temperature, resuspended in buffer containing 20 mM HEPES, pH 7.4, 100 mM NaCl and 10 mM MgCL2, to yield a final protein concentration of 0.60 mg/ml (the resuspended membranes are placed on ice until use).
Candidate compounds identified as per above (if frozen, thawed at room temperature) were added to plate wells (3 μl/well; 12 μM final assay concentration), together with 50 μl Membrane Protein (30 μg/well) and 50 μl of Assay Buffer. This admixture was then incubated for 30 minutes at room temperature, with gentle shaking.
Following the incubation, 100 μl of Detection Buffer was added to each well, followed by incubation for 2-20 hours. Plates were subsequently aspirated and then counted in a Wallac MicroBeta™ plate reader using “Prot. #31” (as per manufacturer instructions).

The next test has as its target T2, GPR6:Gsα-Fusion Protein (Homo sapiens, UniProt P46095).
T2 construct: expressed in transfected cells
Put plainly: [35S]GTPγS membrane binding assay (Example 4A). In kind it is biochemical. The procedure: The assay plates were then centrifuged at 400 rpm for 15 minutes at room temperature and then subsequently aspirated and counted in a scintillation counter.
Membranes expressing the GPCR6:Gsα-Fusion Protein (see Example 2) and for use in the direct identification of candidate compounds as inverse agonists, agonists or partial agonists were prepared as follows:
All materials were kept on ice throughout the procedure. Firstly, the media was aspirated from a confluent monolayer of cells, followed by rinse with 10 ml cold PBS, followed by aspiration. Thereafter, 5 ml of membrane Scrape Buffer was added to scrape cells; this was followed by transfer of cellular extract into 50 ml centrifuge tubes (centrifuged at 20,000 rpm for 17 minutes at 4° C.). Thereafter, the supernatant was aspirated and the pellet was resuspended in 30 ml Membrane Wash Buffer followed by centrifuge at 20,000 rpm for 17 minutes at 4° C. The supernatant was then aspirated and the pellet resuspended in Binding Buffer. This was then homogenized using a Brinkman polytron™ homogenizer (15-20 second bursts until the all material was in suspension). This is referred to herein as “Membrane Protein”.
Candidate compounds (Tripos, Inc., St. Louis, Mo.) were received in 96-well plates (these can be frozen at −80° C.). Membrane Protein (or membranes with expression vector excluding the GPR6:Gsα-Fusion Protein, as control), were homogenized briefly until in suspension. Protein concentration was then determined using the Bradford Protein Assay set forth above. […] Thereafter, 100 ul GDP Buffer was added to each well of a Wallac Scintistrip™ (Wallac). A 5 ul pin-tool was then used to transfer 5 ul of a candidate compound into such well (i.e., 5 ul in total assay volume of 200 ul is a 1:40 ratio such that the final screening concentration of the candidate compound is 10 uM). Again, to avoid contamination, after each transfer step the pin tool was rinsed in three reservoirs comprising water (1×), ethanol (1×) and water (2×)—excess liquid should be shaken from the tool after each rinse and dried with paper towels and kimwipes™. Thereafter, 50 ul of Membrane Protein was added to each well (a control well comprising membranes without the GPCR Fusion Protein is also utilized), and pre-incubated for 5-10 minutes at room temperature (the plates were covered with foil in that the candidate compounds obtained from Tripos are light sensitive). Thereafter, 50 ul of [^35S]GTPγS (0.6 nM) in Binding Buffer was added to each well, followed by incubation on a shaker for 60 minutes at room temperature (again, in this example, plates were covered with foil). The assay was then stopped by spinning of the plates at 4000 RPM for 15 minutes at 22° C. The plates were then aspirated with an 8 channel manifold and sealed with plastic plate covers. The plates were then read on a Wallac 1450 using setting “Prot. #37” (as per manufacturer instructions).
The initial or “primary” screen designed to directly identify, e.g., human GPR6 receptor inverse agonists, consisted of the membrane-based GTPγS binding assay of Example 4A utilizing membranes prepared from 293 stable cells. Candidate compounds directly identified as inhibiting receptor-mediated increases in GTPγS as set forth below were considered active “leads”.
It is preferred that following such direct identification, IC50 (inverse agonist) or EC50 (agonist) values be determined; those having ordinary skill in the art are credited with utilizing IC50 and EC50 assay protocols of choice. FIG. 4 provides a representative IC50 curve for compound ARE112 using the assay protocol of Example 4A.

The nature of test [1]: Food/water intake and body weight in 24-hour food deprived rats, oral gavage (PO). Format: in vivo, rat. The procedure:
Based upon the in vivo data developed, oral bioavailability of compound ARE112 was determined. The compound was administered by oral gavage at doses ranging from 6.75 to 54 mg/kg. The data presented in FIGS. 9A and 9B support the conclusion that oral administration of ARE112 also decreases food intake in both food-deprived and non-food deprived rats. […] In FIG. 9A, rats were deprived 24 hours prior to oral administration of the compound. In this assay, the vehicle-treated rats at 2.5 hours consumed […] of food while injected rats; particularly rats administered with 27 and 54 mg/kg of ARE 112, ate about 6 and 4 grams, respectively. […] (See, FIG. 9A).
Several other GPR6 inverse agonists were also assessed under 24-hour food deprived conditions, with PO administration. The analogs listed below were tested at 200 μmol/kg, which is equivalent to 54 mg/kg. In addition, ARE114 was also assessed at […]. Data are summarized below in Table C:
In a second assay, tested under the same conditions, several other analogs were assessed at 100 μmol/kg.
In FIG. 10, rats were deprived 24 hours prior to oral administration of the compound. In this assay, analogs ARE130, ARE135, ARE136, and ARE140, were administered at a dose of 100 μmol/kg. Three analogs, particularly, ARE130, ARE136 and ARE140 evidenced a slow intake of food (e.g., about 1 to 1.5 grams every two hours) over an eight hour period post-administration; while the vehicle rat consumed about 2 to 2.5 grams food every two hours. Similar to the vehicle rat, analog ARE135, an opened ring structure, evidenced that over an eight hour period post-administration the rats increasingly consumed about 2.5 grams every two hours. (See, FIG. 10A). Furthermore, the body weight of the vehicle rat and administered rats with analog ARE135 gained about 19.5 grams. On the other hand, the closed ring structures evidenced a decrease in body weight gain as follows: ARE112-6 grams, ARE130-9 grams, ARE136-11 grams and ARE140-14 grams. See, FIG. 10C.

The mark [2] stands for this setting: mean +/- standard deviation (number of assays in brackets), read-out: IC50 Values GTP Assay Example 4A.
Where [3] appears, read: 100 μmol/kg PO, second assay, Table D, vehicle 19.25.

T2 sequence (P46095 with tags, fused parts or gaps): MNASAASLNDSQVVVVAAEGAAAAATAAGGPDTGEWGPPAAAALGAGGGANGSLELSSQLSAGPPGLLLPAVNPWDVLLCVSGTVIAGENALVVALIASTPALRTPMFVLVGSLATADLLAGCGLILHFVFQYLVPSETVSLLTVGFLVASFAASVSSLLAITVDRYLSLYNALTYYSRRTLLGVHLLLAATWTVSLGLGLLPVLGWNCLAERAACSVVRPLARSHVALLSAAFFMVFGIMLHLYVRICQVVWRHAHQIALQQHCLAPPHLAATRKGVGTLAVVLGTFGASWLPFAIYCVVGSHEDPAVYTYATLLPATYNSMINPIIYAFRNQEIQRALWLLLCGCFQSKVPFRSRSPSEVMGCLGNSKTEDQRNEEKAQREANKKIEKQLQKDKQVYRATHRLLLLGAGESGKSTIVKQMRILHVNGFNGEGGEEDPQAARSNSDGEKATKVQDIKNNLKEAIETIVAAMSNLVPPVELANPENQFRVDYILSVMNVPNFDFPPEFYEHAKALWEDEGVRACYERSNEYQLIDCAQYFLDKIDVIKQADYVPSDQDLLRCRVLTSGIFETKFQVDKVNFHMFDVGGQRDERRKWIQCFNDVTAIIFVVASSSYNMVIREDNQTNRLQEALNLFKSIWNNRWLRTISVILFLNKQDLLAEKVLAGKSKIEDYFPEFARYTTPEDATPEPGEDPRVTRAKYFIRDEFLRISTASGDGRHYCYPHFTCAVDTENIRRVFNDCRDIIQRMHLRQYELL
T1 sequence (P46095 whole entry): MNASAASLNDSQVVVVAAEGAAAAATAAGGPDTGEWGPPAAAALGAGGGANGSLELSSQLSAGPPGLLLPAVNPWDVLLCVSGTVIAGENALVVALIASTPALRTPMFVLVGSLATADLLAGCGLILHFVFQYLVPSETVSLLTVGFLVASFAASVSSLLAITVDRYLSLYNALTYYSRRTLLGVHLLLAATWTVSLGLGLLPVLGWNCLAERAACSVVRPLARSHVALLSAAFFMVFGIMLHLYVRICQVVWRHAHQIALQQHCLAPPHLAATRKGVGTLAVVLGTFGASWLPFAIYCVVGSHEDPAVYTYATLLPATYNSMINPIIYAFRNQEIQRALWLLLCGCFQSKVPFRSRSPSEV

Take `O=C(N=C1SSC2=NCCN21)c1cccc(F)c1` [ARE130, N-(5,6-dihydro-3H-imidazo[2,1-c]-1,2,4-dithiazol-3-ylidene)-3-fluorobenzamide]: the IC50 at GPR6 is 240 nM; at GPR6:Gsα-Fusion Protein (mean +/- SD (number of assays), read-out: IC50 Values (Table E, GTP Assay of Example 4A)) it was 220 nM; at GPR6:Gsα-Fusion Protein (setting [2]), 220 nM. In test [1] (100 μmol/kg PO, second assay, Table D, vehicle 14.0), the “Cumulative Food Intake (g) (8 hr post administration)” value is 9.1 g. Further, the “Body Weight Gain (g) (6 hr post administration)” value in test [1] (setting [3]) is reported as 9.5 g. In addition, the “Cumulative Water Intake (g) (6 hr post administration)” value in test [1] (setting [3]) is reported as 9.5 g. In addition, in test [1] (100 μmol/kg oral), the “water drunk less than the vehicle animal (FIG. 10B)” value was “about 10 grams”. Further, the “body weight gain (FIG. 10C)” value in test [1] (100 μmol/kg oral, vehicle about 19.5 grams) stood at 9 grams.

In the case of `O=C(N=C1SSC2=NCCN21)c1ccc(F)cc1` [ARE128, N-(5,6-dihydro-3H-imidazo[2,1-c]-1,2,4-dithiazol-3-ylidene)-4-fluorobenzamide], the values for the IC50 at GPR6 and on GPR6:Gsα-Fusion Protein (setting [2]) were 200 nM and 370 nM, respectively. Further, the “Cumulative Food Intake (g) (8 hr post administration)” value in test [1] (200 μmol/kg PO, Table C, vehicle 14.5) turned out to be 7.93 g. In addition, in test [1] (200 μmol/kg PO, Table C, vehicle 20.3), the “Body Weight Gain (g) (6 hr post administration)” value turned out to be 4.03 g. In addition, in test [1] (200 μmol/kg PO, Table C, vehicle 22.9), the “Cumulative Water Intake (g) (6 hr post administration)” value was determined as 8.5 g.

`O=C(N=C1SSC2=NCCN21)c1ccc(C(F)(F)F)cc1` [ARE116, N-(5,6-dihydro-3H-imidazo[2,1-c]-1,2,4-dithiazol-3-ylidene)-4-trifluoromethylbenzamide]: the IC50 on GPR6 is 170 nM; at GPR6:Gsα-Fusion Protein (setting [2]), 570 nM.

Consider `O=C(NC(=S)N1CCNC1=S)c1ccc(Cl)cc1` [ARE119, N-(2-thioxo-imidazolidine-1-carbothioyl)-4-chlorobenzamide], for which the figures for the IC50 at GPR6 and on GPR6:Gsα-Fusion Protein (setting [2]) were 1970 nM and 450 nM, respectively.

Consider `O=C(NC(=S)N1CCNC1=S)c1ccco1` [ARE143, N-(2-thioxo-imidazolidine-1-carbothioyl)-furan-2-carboxamide], for which the IC50 is 160000 nM at GPR6 and 68300 nM at GPR6:Gsα-Fusion Protein (setting [2]).

`CC(C)(C)c1ccc(C(=O)N=C2SSC3=NCCN32)cc1` [ARE118, N-(5,6-dihydro-3H-imidazo[2,1-c]-1,2,4-dithiazol-3-ylidene)-4-tert-butylbenzamide]: the IC50 is 370 nM at GPR6 and 650 nM on GPR6:Gsα-Fusion Protein (setting [2]).

Regarding `Cc1noc(C)c1C(=O)/N=C1\SSC2=NCCN21` [ARE148], the IC50 came to 350 nM at GPR6 and 460 nM at GPR6:Gsα-Fusion Protein (setting [2]).

As for `Cc1cccc(C(=O)NC(=S)N2CCNC2=S)c1` [ARE125, N-(2-thioxo-imidazolidine-1-carbothioyl)-3-methylbenzamide], the IC50 stood at 120000 nM at GPR6 and 3800 nM on GPR6:Gsα-Fusion Protein (setting [2]).

On to `O=C(NC(=S)N1CCNC1=S)c1ccc(F)cc1F` [ARE133, N-(2-thioxo-imidazolidine-1-carbothioyl)-2,4-difluorobenzamide], for which the values for the IC50 at GPR6 and at GPR6:Gsα-Fusion Protein (setting [2]) were 170 nM and 110 nM, respectively.

On to `COc1ccc(C(=O)NC(=S)N2CCNC2=S)cc1` [ARE121, N-(2-thioxo-imidazolidine-1-carbothioyl)-4-methoxybenzamide], for which the IC50 stood at 55000 nM at GPR6 and 122000 nM at GPR6:Gsα-Fusion Protein (setting [2]).

For the compound `O=C(NC(=S)N1CCNC1=S)c1ccc(C(F)(F)F)cc1` [ARE115, N-(2-thioxo-imidazolidine-1-carbothioyl)-4-trifluoromethylbenzamide], the IC50 at GPR6 amounted to 3650 nM; on GPR6:Gsα-Fusion Protein (setting [2]), 1570 nM.

On to `O=C(NC(=S)N1CCNC1=S)c1cccnc1` [ARE155, N-(2-thioxo-imidazolidine-1-carbothioyl)-pyridine-3-carboxamide], for which the IC50 stood at 850 nM at GPR6 and 6560 nM at GPR6:Gsα-Fusion Protein (setting [2]).

In the case of `O=C(NC(=S)N1CCNC1=S)c1ccon1` [ARE149, N-(2-thioxo-imidazolidine-1-carbothioyl)-isoxazole-3-carboxamide], the values for the IC50 on GPR6 and on GPR6:Gsα-Fusion Protein (setting [2]) were 5830 nM and 2430 nM, respectively.

Turning to `O=C(N=C1SSC2=NCCN21)c1ccon1` [ARE150, N-(5,6dihydro-3H-imidazo[2,1-c]-1,2,4-dithiazol-3-ylidene)-isoxazole-3-carboxamide], the IC50 at GPR6 was 100 nM; on GPR6:Gsα-Fusion Protein (setting [2]), 330 nM.

On to `O=C(NC(=S)N1CCNC1=S)c1cc2ccccc2s1` [ARE139, N-(2-thioxo-imidazolidine-1-carbothioyl)-benzothiophen-2-carboxamide], for which the IC50 on GPR6 came out at 4520 nM; on GPR6:Gsα-Fusion Protein (setting [2]) it was 260 nM.
